pIC50: −log10 of the molar value. Converted amounts (≈) assume the structure as drawn.

Here are results for six compounds from ChEMBL document CHEMBL5042501, “Gwanakosides A and B, 6-Deoxy-α-l-talopyranose-Bearing Aromatic Metabolites from a Streptomyces sp. and Coculture with Pandoraea sp” (J Nat Prod, 2022).

Assay [1] concerns SNU-638. In words: Antiproliferative activity against human SNU-638 cells assessed as reduction in cell viability incubated for 72 hr by SRB assay. It counts as functional, cell-based. As to conditions: SNU-638, 72 h.
Assay [2] has as its system Enterococcus faecium. In words: Antibacterial activity against Enterococcus faecium ATCC 19434 assessed as inhibition of bacterial growth incubated for 24 hr by CLSI based broth microdilution method. It counts as functional.
Assay [3] relates to MDA-MB-231. In words: Antiproliferative activity against human MDA-MB-231 cells assessed as reduction in cell viability incubated for 72 hr by SRB assay. It counts as functional, cell-based. As to conditions: MDA-MB-231, 72 h.
Assay [4] concerns Staphylococcus aureus. In words: Antibacterial activity against Staphylococcus aureus ATCC 25923 assessed as inhibition of bacterial growth incubated for 24 hr by CLSI based broth microdilution method. It counts as functional.
Assay [5] deals with Klebsiella pneumoniae. In words: Antibacterial activity against Klebsiella pneumoniae ATCC 10031 assessed as inhibition of bacterial growth incubated for 24 hr by CLSI based broth microdilution method. It counts as functional.
Assay [6] concerns Enterococcus faecalis. The experiment in a line: Antibacterial activity against Enterococcus faecalis ATCC 19433 assessed as inhibition of bacterial growth incubated for 24 hr by CLSI based broth microdilution method. It counts as functional.
In assay [7] the test system is A498. In words: Antiproliferative activity against human A498 cells assessed as reduction in cell viability incubated for 72 hr by SRB assay. It counts as functional, cell-based. As to conditions: A498, 72 h.
In assay [8] the test system is SK-HEP1. The experiment in a line: Antiproliferative activity against human SK-HEP1 cells assessed as reduction in cell viability incubated for 72 hr by SRB assay. It counts as functional, cell-based. As to conditions: SK-HEP1, 72 h.
In assay [9] the test system is HCT-116. In words: Antiproliferative activity against human HCT116 cells assessed as reduction in cell viability incubated for 72 hr by SRB assay. It counts as functional, cell-based. The settings on record: HCT-116, 72 h.
Assay [10] deals with Escherichia coli. In words: Antibacterial activity against Escherichia coli ATCC 25922 assessed as inhibition of bacterial growth incubated for 24 hr by CLSI based broth microdilution method. It counts as functional.
In assay [11] the test system is Salmonella enterica. The experiment in a line: microbe, parasite or virus in culture. The settings on record: ATCC 14028, 24 h.
Description: Antibacterial activity against Salmonella enterica ATCC 14028 assessed as inhibition of bacterial growth incubated for 24 hr by CLSI based broth microdilution method
Assay [12] deals with Mycobacterium tuberculosis. The experiment in a line: Antibacterial activity against Mycobacterium tuberculosis mc2 6230 assessed as bacterial growth inhibition incubated for 5 days by resazurin microtiter assay. It counts as functional. The settings on record: mc2 6230, 120 h, time 5 day.
For assay [13], the system named is Trichophyton mentagrophytes. The experiment in a line: Antifungal activity against Trichophyton mentagrophytes IFM 40996 assessed as fungal growth inhibition incubated for 96 hrs. It counts as functional.
The subject of assay [14] is Aspergillus fumigatus. The experiment in a line: Antifungal activity against Aspergillus fumigatus HIC 6094 assessed as fungal growth inhibition incubated for 48 hrs. It counts as functional.
Assay [15] concerns Trichophyton rubrum. In words: Antifungal activity against Trichophyton rubrum NBRC 9185 assessed as fungal growth inhibition incubated for 96 hrs. It counts as functional.
Assay [16] deals with Candida albicans. In words: Antifungal activity against Candida albicans ATCC 10231 assessed as fungal growth inhibition incubated for 24 hrs. It counts as functional.
Assay [17] in a line: Inhibition of Staphylococcus aureus ATCC6538p Sortase A incubated for 1 hr by fluorescence spectrophotometric analysis.

In the case of `Cc1cc2c(c(O[C@@H]3O[C@@H](C)[C@@H](O)[C@@H](O)[C@H]3O)c1)-c1cc3c(c(O)c1[C@@H](O)C2)C(=O)c1c(O)cc(O)cc1C3=O`, the negative logarithm of the IC50 (pIC50) in [1], in [3], in [7], in assay [8] and in [9] was under 4.70 throughout. The MIC in assay [2] is 128 µg/mL (≈ 233 µM); in assay [4] it was over 128 µg/mL; in assay [5] it was over 128 µg/mL; in [6], over 128 µg/mL; in assay [10], over 128 µg/mL; in [11] it was over 128 µg/mL.

On to `COc1nc2ccc(Br)cc2cc1[C@@H](c1ccccc1)[C@@](O)(CCN(C)C)c1cccc2ccccc12` [BEDAQUILINE], for which, in assay [12], the MIC50 was determined as 0.5 µg/mL (≈ 0.9 µM).

Regarding `CN(C)[C@@H]1C(O)=C(C(N)=O)C(=O)[C@@]2(O)C(O)=C3C(=O)c4c(O)cccc4[C@@](C)(O)[C@H]3C[C@@H]12` [TETRACYCLINE], in assay [5], the MIC amounted to 0.25 µg/mL (≈ 0.563 µM).

For the compound `COc1cc([C@@H]2c3cc4c(cc3[C@@H](O[C@@H]3O[C@@H]5CO[C@@H](C)O[C@H]5[C@H](O)[C@H]3O)[C@H]3COC(=O)[C@H]23)OCO4)cc(OC)c1O` [ETOPOSIDE], the pIC50 in assay [1] is 6.40; in assay [3] it was 5.55; in [7], 6.64; in [8] it was 6.66; in assay [9] it was 6.60.

On to `Cc1c(Cl)c(O[C@@H]2O[C@@H](C)[C@@H](O)[C@@H](O)[C@H]2O)c2cc(O[C@@H]3O[C@@H](C)[C@@H](O)[C@@H](O)[C@H]3O)ccc2c1Cl`, for which the pIC50 in [1] was 5.07; in [3], 4.71; in assay [7], 4.73; in [8] it was 4.83; in [9] it was 5.25. Besides, the MIC in assay [12] was 15 µg/mL (≈ 28 µM); in assay [2] it was 16 µg/mL (≈ 29.9 µM); in assay [4], 8 µg/mL (≈ 14.9 µM); in assay [5] it was 32 µg/mL (≈ 59.8 µM); in [6], 16 µg/mL (≈ 29.9 µM); in assay [13], over 128 µg/mL. The MIC was over 128 µg/mL in assay [14]; over 128 µg/mL in assay [15]; over 128 µg/mL in assay [16]; over 128 µg/mL in assay [10]; 16 µg/mL (≈ 29.9 µM) in assay [11]. In assay [17], the IC50 is 63.3 µg/mL (≈ 118 µM).

Take `CC1(C)S[C@@H]2[C@H](NC(=O)[C@H](N)c3ccccc3)C(=O)N2[C@H]1C(=O)O` [AMPICILLIN]: the MIC stood at 0.25 µg/mL (≈ 0.715 µM) in assay [2]; 0.13 µg/mL (≈ 0.372 µM) in assay [4]; 0.5 µg/mL (≈ 1.43 µM) in [6]; 8 µg/mL (≈ 22.9 µM) in [10]; 0.13 µg/mL (≈ 0.372 µM) in [11].
